This passage reports logP results from the OPERA property sets (Mansouri et al. 2018).

In general, logP refers to a log measure of how a compound divides between an organic and an aqueous phase. A higher logP goes with a more lipophilic compound. `NC(=O)Cn1nnc2ccccc21` registered a logP of -0.1.
To `Cc1cc(C)cc(O[Si]23OCCN(CCO2)CCO3)c1` belongs 0.46; to `CC(=O)C(C#N)=NNc1ccc(SC(F)(F)F)cc1`, 5.04; to `CCC1(CC2COc3ccccc3O2)C(=O)NC(=O)NC1=O` (centres undefined), 1.85.
As for `CCCCNc1ccccc1C(N)=O`, the figure is 2.33.
As for `NC(=O)COCc1ccco1`, the figure is -0.11.
Regarding `Cc1cc(C)cc(NC(=O)N(C)C)c1`, the log partition coefficient (logP) stood at 1.9.
As for `CCOn1c(=O)[nH]c(C)c(Br)c1=O`, the figure is 0.11; as for `O=C1CN=C(c2ccccc2Cl)c2cc(Cl)ccc2N1`, 3.15; as for `OCC1C(Cl)C(Cl)C(Cl)C(Cl)C1Cl` (centres undefined), 2.94.
Regarding `O=C1CCC(=O)N1c1ccc(F)cc1`, the logP was found to be 0.29.
To `CC1=Nc2cc([N+](=O)[O-])c(Cl)cc2S(=O)(=O)N1` belongs 1.42; to `CN1C(=N)SC(=Cc2ccc([N+](=O)[O-])o2)C1=O`, 1.44; to `CCCCOn1c(=O)[nH]c(C)c(Br)c1=O`, 1.24.
Take `N#CSc1ccccc1`: the logP was 2.54.
As for `ClC1C=CCC(Cl)C1Cl` (centres undefined), the figure is 2.84; as for `CN(C)c1ccc2c(c1)C(c1ccccc1)=NCC(=O)N2C`, 2.63; as for `CN(SN(C)C(=O)OC(C)(C)C)C(=O)Oc1cccc2c1OC(C)(C)C2`, 4.3.
Turning to `CCOP(=O)(OCC)Oc1c(Cl)cc(SC)cc1Cl`, the lipophilicity (logP) was 3.72.
To `O=[N+]([O-])c1nccn1CC(O)COc1ccccc1` (centres undefined) belongs 1.43.
In the case of `CC(=O)Nc1cc(C(F)(F)F)cc(C(F)(F)F)c1Br`, the logP is 3.51.
As for `CSc1nnc(C2CCCCC2)c(=O)n1N`, the figure is 2.14.
As for `CC(=O)N(C)SN(C)C(=O)Oc1cccc2c1OC(C)(C)C2`, the figure is 2.7.
The compound `Nc1nc(N)nc(-c2cc(Cl)ccc2Br)n1` had a lipophilicity (logP) of 1.85.
To `CCN(CC)c1nc(N(C)C)nc(N(C)C)n1` belongs 3.45.
To `COc1cc(-n2nc(C)cc2OC)ncn1` belongs 1.53; to `NNC(=O)c1ccccc1I`, 0.47; to `Cc1csc(C=Cc2ccc([N+](=O)[O-])o2)n1`, 1.53.
In turn, `COc1cc(C)nn1-c1nc(C)cc(C)n1` showed a logP of 0.73.
As for `Nc1cnc2ccccc2n1`, the figure is 1.5; as for `COc1ncnc2ccccc12`, 1.97; as for `CCCNC1CC2CC1c1ccccc12` (centres undefined), 3.3.
For `COn1c(=O)[nH]c(C)c(Br)c1=O`, the logP was -0.3.
To `Cn1ncc2ccccc2c1=O` belongs 0.61; to `CCc1ccc2c(c1)C(c1ccccc1F)=NCC(=O)N2`, 2.92.
To `c1cncc(CCN2CCCCC2)c1` belongs 1.66; to `CCC(=O)Nc1n[nH]c(NC(=O)CC)n1`, 0.07.
As for `CSc1nnc(CCC(C)C)c(=O)n1N`, the figure is 1.85; as for `CC(=O)c1ccccc1NC(=O)C(Cl)Cl`, 2.65; as for `O=C(O)c1ccccc1Nc1cccc(O)c1`, 3.49.
With `OCC(CO)(CO)CBr`, the logP was -0.7.
The compound `CC(C)Sc1nnc(C(C)C)c(=O)n1N` registered a logP of 2.06.
For the compound `CC1CCC(C)N1N=O` (centres undefined), the lipophilicity (logP) stood at 0.86.
As for `CN(Cc1ccc([N+](=O)[O-])cc1)N=Nc1ccc(C(=O)O)cc1`, the figure is 4.03; as for `O=C(O)c1ccccc1NCCO`, 1.35; as for `CN1C(=O)CN=C(c2ccccc2F)c2cc(N)ccc21`, 1.3.
To `COc1cc(Cc2cnc(N)nc2N)cc(O)c1O` belongs -0.31; to `Cc1ccoc1CN(C)C`, 1.63; to `Nc1nc(-c2ccccc2)c2ccccc2n1`, 2.95.
`Cc1ccc(CN(C)N=Nc2ccc(C(=O)O)cc2)cc1`: the logP turned out to be 4.75.
To `CCCCCC(=O)N[C@@H]1C(=O)N2[C@@H]1SC(C)(C)[C@@H]2C(=O)O` belongs 2.37.
To `O=C1O[C@@H](O)c2ccccc21` belongs 0.57; to `COc1cc(CC(C)N)cc(OC)c1OC` (centres undefined), 1.21; to `O=S1(=O)N=CNc2ccc(Cl)cc21`, 1.07.
Compound `CCOC(=O)C(C#N)=NNc1cc(Cl)c(Cl)c(Cl)c1` returned a logP of 5.03.
Compound `S=C=Nc1ccc(N=Nc2ccccc2)cc1` displayed a lipophilicity (logP) of 5.55.
As for `CN(C)CCCC(c1ccccc1)c1ccc(C(C)(C)C)cc1` (centres undefined), the figure is 5.72.
`Cn1c(=O)c(=O)n(C)c2ccccc21` showed a logP of 0.08.
As for `O=[N+]([O-])c1nccn1CCCOc1ccccc1`, the figure is 2.38; as for `O=C1CN=C(c2c(F)cccc2F)c2ccc(Cl)cc2N1`, 2.88.
For `C[N+](C)(C)Cc1cccnc1.[Br-]`, the logP was -3.5.
As for `Cc1cnc2ccccn2c1=O`, the figure is 0.77; as for `CCc1ccccc1N1C(=O)CCC1=O`, 0.64.
Consider `O=S(=O)(Nc1cccc(Cl)c1)C(F)(F)F`, for which the logP came out at 4.
As for `CC(=O)Nc1cc2c(cc1Cl)S(=O)(=O)NC(C)=N2`, the figure is 0.53; as for `CC(=O)N(CCO)c1c(I)c(C(=O)NCC(O)CO)c(I)c(C(=O)NCC(O)CO)c1I` (centres undefined), -2.47.
As for `O=C1CCC(=O)N1c1cccc(C(F)(F)F)c1`, the figure is 1.26; as for `CCSC(=O)Oc1cccc2cccnc12`, 2.74; as for `Clc1ccc(N=C2NCCN2)c(Cl)c1`, 1.96.
To `COc1ccc(C2=NCC(=O)N(C)c3ccc(Cl)cc32)cc1` belongs 3.15; to `CCCCCc1nnc(N)o1`, 1.1; to `O=C1CN=C(c2ccc(Br)cc2)c2cc(Br)ccc2N1`, 4.04.
Consider `CCOC(=O)C(=Cc1cccc(C)c1)C(C)=O`, for which the log partition coefficient (logP) is 2.8.
To `NC(=O)CCCn1nnc2ccccc21` belongs 0.37; to `O=C(NC(CO)C(O)c1cccc([N+](=O)[O-])c1)C(Cl)Cl` (centres undefined), 1.15.
To `Cn1c(C(O)CO)cnc1[N+](=O)[O-]` (centres undefined) belongs -0.89; to `Nc1nc(N)nc(-c2cccc(Cl)c2)n1`, 2.33.
As for `CS(=O)(=O)c1cccs1`, the figure is 0.38; as for `CNC(=S)NCCSCc1nc[nH]c1C`, 0.5.
`CCOP(=O)(OCC)Oc1ccc(SC)cc1` registered a logP of 2.79.
Turning to `CCOC(=O)C(=Cc1ccc(OC)cc1)C(=O)OCC`, the logP was found to be 3.28.
To `CNP(=O)(OC)Oc1ccc(SC)cc1` (centres undefined) belongs 1.81; to `CC(C)(Cc1ccccc1)NC(=O)N(CCCl)N=O`, 3.73; to `O=NN1CCC(c2ccccc2)CC1`, 2.59.
As for `COc1cccc(/C=C/[N+](=O)[O-])c1`, the figure is 2.37; as for `O=[N+]([O-])c1nccn1CC(O)COCC(F)(F)F` (centres undefined), 0.52; as for `COc1cc(Cc2cnc(N)nc2N)cc(OC)c1C(C)=O`, 1.1.
To `O=NN1CCC(O)CC1` belongs -0.89.
Regarding `CCOC(=O)N(C)SN(C)C(=O)Oc1cccc2c1OC(C)(C)C2`, the lipophilicity (logP) came to 3.5.
As for `COC12C(COC(N)=O)C3=C(C(=O)C(C)=C(N)C3=O)N1CC1C2N1C(=O)Cc1ccccc1` (centres undefined), the figure is 1.15.
As for `CCCc1nnc(N)o1`, the figure is 0.23.
To `CNC(=O)Oc1ccc(C(C)(C)C)c(C)c1` belongs 3.38.
Regarding `COC(=O)C(C#N)=NNc1ccc2c(c1)OC(F)(F)C(F)(F)O2`, the logP turned out to be 4.86.
`COc1ccnc(-n2nc(C)cc2OC)n1`: the logP came to 1.01.
`N#Cc1ccc(C=CNC=O)cc1` had a lipophilicity (logP) of 1.62.
For `CCc1cc(=O)n2c(C)cccc2n1`, the lipophilicity (logP) stood at 1.59.
The compound `S=C=NCc1cccc2ccccc12` gave a logP of 4.42.
As for `O=C(O)COc1cccc(SC(F)(F)F)c1`, the figure is 2.86; as for `Oc1ccc(C(c2ccncc2)c2ccc(O)cc2)cc1`, 3.24.
In turn, `CCc1n[nH]c(=O)[nH]c1=O` had a logP of 0.22.
As for `Cc1ccc(NC(=O)c2ccco2)c(O)c1`, the figure is 2.84; as for `CCCSc1nnc(C(C)C)c(=O)n1N`, 2.12.
To `CCCCCCCCCCOn1c(=O)[nH]c(C)c(Br)c1=O` belongs 4.65.
To `CC(=O)OCC(Cn1ccnc1[N+](=O)[O-])OC(C)=O` (centres undefined) belongs -0.05; to `CC(C)c1nnc(N2CCOCC2)n(N)c1=O`, 0.49; to `Oc1ccc(C(c2ccc(O)cc2)c2cccnc2)cc1`, 3.13.
In turn, `COc1cccc(Cc2cnc(N)nc2N)c1` came in with a logP of 1.54.
As for `CC1=Nc2cc(Br)ccc2S(=O)(=O)N1`, the figure is 1.37.
To `O=C(c1ccncc1)c1ccccc1O` belongs 2.13; to `CSc1nnc(CC(C)C)c(=O)n1N`, 1.39; to `CN(C)c1ccc2c(c1)C(c1ccccc1)=NCC(=O)N2`, 2.43.
Turning to `COc1cc(Cc2cnc(N)nc2N)cc(OC)c1C`, the logP was 2.14.
`CNP(=O)(OC)Oc1ccc([N+](=O)[O-])cc1` (centres undefined) gave a logP of 1.27.
To `CON(C)C(=O)Nc1ccc(C(C)C)cc1` belongs 2.95; to `CCSc1nnc(C(C)C)c(=O)n1N`, 1.52.
To `CN(C)C(=O)Cc1ccco1` belongs 0.01; to `COc1ccc(Cc2cnc(N)nc2N)cc1OCc1ccccc1`, 2.44.
To `O=C1CN=C(c2ccccc2F)c2cc(Cl)ccc2N1CC(O)CO` (centres undefined) belongs 1.51; to `O=C(CNC(=O)c1ccccc1)Oc1cccc(C(F)(F)F)c1`, 3.3.
In turn, `COc1cc(Cc2cnc(N)nc2N)cc(OC)c1C#N` yielded a log partition coefficient (logP) of 1.39.
To `O=C(O)Cc1ccc(OCc2ccccc2)c(Br)c1` belongs 3.51.
To `COc1cc(Cc2cnc(N)nc2N)cc(OCc2ccccc2)c1OC` belongs 2.37; to `NC1CC2CC1c1ccccc12` (centres undefined), 2.
To `COC(=O)C(C#N)=NNc1ccccc1` belongs 2.59.
Regarding `Oc1ccnc2c(O)cccc12`, the logP was 0.62.
To `O=C1OC(C2CCCCC2)c2ccccc21` (centres undefined) belongs 3.34; to `CCCOC(=O)NC`, 0.95.
As for `CC(=O)Oc1ccccc1F`, the figure is 1.76.
To `NC(=S)c1ncccn1` belongs -0.34.
